Assay results: article PMC6462819 (Science immunology, 2018)

Molecular target: T1, recombinant GSDMD (human, full-length) (Homo sapiens, UniProt P57764)
T1 sequence (P57764 1-484): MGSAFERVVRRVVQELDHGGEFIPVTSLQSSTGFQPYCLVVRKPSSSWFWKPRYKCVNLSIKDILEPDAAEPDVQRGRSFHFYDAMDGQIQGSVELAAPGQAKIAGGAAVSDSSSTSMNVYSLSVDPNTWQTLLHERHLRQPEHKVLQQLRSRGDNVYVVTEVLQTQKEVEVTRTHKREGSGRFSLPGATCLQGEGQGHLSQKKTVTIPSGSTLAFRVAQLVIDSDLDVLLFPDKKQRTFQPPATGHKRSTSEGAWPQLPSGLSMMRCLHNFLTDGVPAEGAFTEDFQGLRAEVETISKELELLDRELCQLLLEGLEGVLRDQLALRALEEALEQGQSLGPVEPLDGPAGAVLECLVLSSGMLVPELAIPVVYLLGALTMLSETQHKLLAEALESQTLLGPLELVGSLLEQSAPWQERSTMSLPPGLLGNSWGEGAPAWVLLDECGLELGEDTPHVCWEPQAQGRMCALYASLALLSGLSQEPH
Assay: surface plasmon resonance, Biacore T200
Assay type: binding

COc1nccnc1NS(=O)(=O)c1ccc(NC(=O)/C=C/c2ccc([N+](=O)[O-])s2)cc1 [necrosulfonamide]
Kd: 32 ± 3.8 µM
